Test results taken from US20230000865A1, “PHARMACEUTICAL COMPOSITION FOR THE TREATMENT OF PULMONARY VASCULAR DISEASE AND/OR CARDIAC DYSFUNCTION IN FONTAN-PALLIATED PATIENTS” (ACTELION PHARMACEUTICALS LTD, priority 2019, published 2023).

How the values were obtained:
BCRP transporters = target: T1, BCRP transporters (Homo sapiens, UniProt Q9UNQ0); assay: Drug-drug interaction, pharmacokinetics of rosuvastatin; type: in vivo; conditions: for Drug-Drug Interaction observed: in vivo
T1 construct: from tissue; host or cells: in vivo: gut, liver canalicular membrane, kidney
T1 sequence (Q9UNQ0 1-655): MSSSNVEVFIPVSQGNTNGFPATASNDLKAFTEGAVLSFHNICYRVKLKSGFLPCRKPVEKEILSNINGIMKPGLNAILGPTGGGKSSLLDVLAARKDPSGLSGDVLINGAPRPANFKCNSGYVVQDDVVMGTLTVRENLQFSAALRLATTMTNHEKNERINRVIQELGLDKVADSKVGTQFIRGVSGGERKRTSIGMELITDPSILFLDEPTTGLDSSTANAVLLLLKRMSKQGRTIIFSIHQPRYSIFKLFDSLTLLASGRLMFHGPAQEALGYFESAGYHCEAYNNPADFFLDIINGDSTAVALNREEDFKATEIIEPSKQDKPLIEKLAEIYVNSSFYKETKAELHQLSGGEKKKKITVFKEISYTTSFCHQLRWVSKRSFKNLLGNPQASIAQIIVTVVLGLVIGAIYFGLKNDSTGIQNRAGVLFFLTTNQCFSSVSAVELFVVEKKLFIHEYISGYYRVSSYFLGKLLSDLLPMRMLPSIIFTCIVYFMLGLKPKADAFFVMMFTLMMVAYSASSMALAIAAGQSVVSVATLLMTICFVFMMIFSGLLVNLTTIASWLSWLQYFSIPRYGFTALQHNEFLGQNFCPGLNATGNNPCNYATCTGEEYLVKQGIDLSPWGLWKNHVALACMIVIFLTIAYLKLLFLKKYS
Excerpt: BCRP is an efflux pump located in the gut, liver canalicular membrane, and kidney, and is exposed to intracellular drug concentrations in the liver and the kidney.

[1] = parameters: key to Frequency observed with macitentan 10 mg: Photophobia: Very common: very common (≥1/10); Common: common (≥1/100 to <1/10); Uncommon: uncommon (≥1/1,000 to <1/100); rare (≥1/10,000 to <1/1,000); very rare (<1/10,000); Not known: not known (cannot be estimated from the available data); conditions: cited from earlier work
[2] = Example 2: Phase 1 safety study of 75 mg qd macitentan in healthy male subjects, with and without up-titration; type: in vivo, human
Method: This is a single-sequence, open-label, single-center, Phase 1 study in healthy male subjects. The study assessed the effect of 75 mg qd administration of macitentan. The study includes a screening phase of 21 days before the first macitentan administration, followed by an open-label treatment phase. Randomization was not used and subjects received the same treatment.
29 subjects were enrolled.
Administration of 75 mg qd macitentan started on Day 1. Macitentan was administered every day in the morning between 8:00 and 11:00 with 240 mL of noncarbonated water. One 75-mg macitentan film-coated tablet was thus administered as multiple qd oral doses under fed conditions.
Subjects were planned to take macitentan 75 mg for 15 days. However the study was interrupted on the morning of day 8, i.e. when subjects had received 7 doses of macitentan 75 mg.
Macitentan was administered in an up-titration regimen in the morning between 8:00 and 11:00 with 240 mL of noncarbonated water. One macitentan film-coated tablet (10 mg, 37.5 mg or 75 mg) was administered as multiple qd oral doses under fed conditions on Days 1-9 and Days 11-12, and under fasted conditions on Days 10 and 13. The up-titration regimen consists of 2 qd doses of 10 mg macitentan and 3 qd doses of 37.5 mg macitentan followed by 8 qd doses of 75 mg macitentan. On Days −4, −3, 10 and 13 (i.e., the days when dosing occurred under fasted conditions), no fluid intake apart from the water taken at the time of macitentan administration was allowed from 1 hour before until 1 hour after administration of macitentan.
All reported AEs with onset during the treatment phase were included in the analysis. The effects on cardiovascular variables were evaluated and the following variables were collected: PR (ms), QRS (ms), QT (ms), QTcB (ms), QTcF (ms), heart rate (bpm), and RR. The normal range for vital signs is defined as follows: • Systolic blood pressure: 100-140 mmHg • Diastolic blood pressure: 60-90 mmHg • Pulse rate: 45-90 bpm • Respiratory rate: 8-20 per minute • Body temperature: 35.0° C. to 37.5° C.
An AE is any untoward medical occurrence, i.e., any unfavorable and unintended sign (including an abnormal finding), symptom, or disease temporally associated with the use of macitentan. A treatment-emergent AE is any occurrence that is new in onset or aggravated in severity from the baseline condition. The following are used to assess all AEs: • Related: There is a reasonable causal relationship between macitentan administration and the AE. • Not Related: There is not a reasonable causal relationship between macitentan administration and the AE.
An assessment of AE severity grade was made using the following general categorical descriptors: • Mild: Awareness of symptoms that are easily tolerated, causing minimal discomfort and not interfering with everyday activities. • Moderate: Sufficient discomfort is present to cause interference with normal activity. • Severe: Extreme distress, causing significant impairment of functioning or incapacitation. Prevents normal everyday activities.

[3] = Example 1: dose-response (Emax) analysis of hemoglobin change, pooled Phase I studies in healthy volunteers; type: in vivo, human
Excerpt: Hemoglobin measurements were pooled from 3 Phase I clinical studies in healthy volunteers: • Study AC-055-102: Investigation of the PK, PD, safety and tolerability of macitentan in male subjects (the study protocol is described in the following publication: Sidharta et al., Safety, tolerability, pharmacokinetics, and pharmacodynamics of macitentan, an endothelin receptor antagonist, in an ascending multiple-dose study in healthy subjects. J. Clin. Pharmacol. (2013), 53(11), 1131-1138) • Study AC-055-116: Investigation of the PK, PD, safety and tolerability of macitentan in male Japanese subjects (the study protocol is described in the following publication: Yokoyama et al., Tolerability, Safety, Pharmacokinetics, and Pharmacodynamics of Macitentan, a New Endothelin Receptor Antagonist, in Healthy Japanese Male Subjects. Rinsho yakuri/Japanese Journal of Clinical Pharmacology and Therapeutics (2016), 47, 143-150) • Study AC-055-117: Investigation of the PK, PD, safety and tolerability of macitentan in male Korean subjects (the study protocol is described in the following publication: Ahn et al., Pharmacokinetic-pharmacodynamic relationships of macitentan, a new endothelin receptor antagonist, after multiple dosing in healthy Korean subjects, Am. […]
Hemoglobin concentrations measured in the morning of Day 11 of macitentan treatment and at baseline on Day −1 were used in the analysis. […]

[4] = cited from earlier work
human PXR = target: T2, human PXR (Homo sapiens, UniProt O75469); assay: Activation of human PXR; type: cell-based
T2 sequence (O75469 1-434): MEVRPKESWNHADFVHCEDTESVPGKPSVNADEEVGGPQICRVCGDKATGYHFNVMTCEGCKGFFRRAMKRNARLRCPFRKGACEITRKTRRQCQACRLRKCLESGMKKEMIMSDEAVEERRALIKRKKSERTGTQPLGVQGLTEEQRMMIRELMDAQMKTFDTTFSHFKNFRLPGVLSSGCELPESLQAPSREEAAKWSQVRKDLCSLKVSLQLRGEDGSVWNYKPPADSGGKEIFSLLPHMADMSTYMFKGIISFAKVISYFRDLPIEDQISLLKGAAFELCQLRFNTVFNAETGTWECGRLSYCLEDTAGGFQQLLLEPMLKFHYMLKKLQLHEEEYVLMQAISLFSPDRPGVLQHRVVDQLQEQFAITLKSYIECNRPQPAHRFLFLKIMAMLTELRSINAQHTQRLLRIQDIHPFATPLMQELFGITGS
Excerpt: In human hepatocytes, both compounds elicited concentration-dependent increases in CYP3A4 mRNA and enzyme activity.

[5] = preoperative Fontan candidates with mild pulmonary hypertension; cited from earlier work
ET receptors = conditions: cited from earlier work
[6] = patients with PAH; cited from earlier work
[7] = long-term treatment, patient with plastic bronchitis following Fontan; cited from earlier work
[8] = early postoperative phase; cited from earlier work
[9] = 75 mg qd without up-titration, 6 subjects
[10] = 75 mg qd, healthy male subjects
[11] = up-titration 10/37.5/75 mg qd, 6 subjects

Structure (SMILES): CCCNS(=O)(=O)Nc1ncnc(OCCOc2ncc(Br)cn2)c1-c1ccc(Br)cc1 [macitentan, propylsulfamic acid [5-(4-bromo-phenyl)-6-[2-(5-bromo-pyrimidin-2-yloxy)-ethoxy]-pyrimidin-4-yl]-amide]
- Drug-Drug Interaction observed (BCRP transporters): No Drug-Drug Interaction
- effect on the pharmacokinetics of 1 mg rosuvastatin (BCRP transporters; macitentan 10 mg per day o.d.): has not shown any effect
- Frequency observed with macitentan 10 mg: Flushing/feeling of warmth/redness of face and/or hands [1]: Uncommon (uncommon (≥1/1,000 to <1/100))
- Frequency observed with macitentan 10 mg: Headache [1]: Very common (very common (≥1/10))
- Frequency observed with macitentan 10 mg: Photophobia [1]: Not known
- Frequency observed with macitentan 10 mg: Sinusitis/rhinitis/nasal congestion [1]: Common (common (≥1/100 to <1/10))
- N with Flushing/feeling of warmth/redness of face and/or hands (No titration) [2, 9]: 4
- N with Headache (No titration) [2, 9]: 6
- N with Photophobia (No titration) [2, 9]: 3
- N with Sinusitis/rhinitis/nasal congestion (No titration) [2, 9]: 5
- Severity of AEs (No titration): Photophobia [2, 9]: All mild
- Severity of AEs (No titration): Sinusitis/rhinitis/nasal congestion [2, 9]: All mild
- overall severity of AEs [2, 10]: mainly mild
- reduction in hemoglobin [2, 10]: ≤ 2 g/dL
- study day from which AEs were reported [2, 10]: ≥ 2 days
- vital signs, ECG and lab parameters [2, 10]: no clinically significant changes
- resolution of AEs ([2]; Four days after stopping macitentan): most of the AEs resolved
- Duration of AE (With titration): Sinusitis/rhinitis/nasal congestion [2, 11]: < 24 h
- N with Flushing/feeling of warmth/redness of face and/or hands (With titration) [2, 11]: 0
- N with Headache (With titration) [2, 11]: 6
- N with Photophobia (With titration) [2, 11]: 0
- N with Sinusitis/rhinitis/nasal congestion (With titration) [2, 11]: 1
- Severity of AEs (With titration): Sinusitis/rhinitis/nasal congestion [2, 11]: Mild, less than
- completion of treatment ([2]; up-titration regimen cohort): All subjects completed treatment
- tolerability of 75 mg macitentan with up-titration regimen ([2]; up-titration vs no up-titration): improved tolerability
- maximum effect on hemoglobin decrease (Emax) ([3]; Day 11 vs baseline Day -1, nonlinear regression): around 1.23 g/dL
- dose at which the effect on hemoglobin decrease plateaus ([3]; FIG. 1): 10 mg
- steady state is reached ([4]; in humans, day of administration): by the third day
- half-life ([4]; in humans): about 16 hours
- absorption into the plasma ([4]; in vivo): absorbed slowly
- EC50 (human PXR): 1.1 to 1.2 µM

Structure (SMILES): CC#CCC(C)[C@H](O)/C=C/[C@@H]1[C@H]2c3cccc(CCCC(=O)O)c3O[C@H]2C[C@H]1O (mixture of isomers) [beraprost]
- effect on mean pulmonary artery pressure (PAP) and PVR [5]: reduces

Structure (SMILES): NS(=O)(=O)Nc1ncnc(OCCOc2ncc(Br)cn2)c1-c1ccc(Br)cc1 [ACT-132577]
- Drug-Drug Interaction observed (BCRP transporters): No Drug-Drug Interaction
- affinity for the ET receptors compared with parent compound (ET receptors): lower affinity
- half-life ([4]; in humans): approximately 48 hours
- plasma concentrations compared with macitentan ([4]; in vivo): higher plasma concentrations than macitentan
- time of peak plasma concentration after the first dose ([4]; metabolite after macitentan administration): about 30 hours
- EC50 (human PXR): 7.2 to 8.7 µM

Structure (SMILES): COc1ccccc1Oc1c(NS(=O)(=O)c2ccc(C(C)(C)C)cc2)nc(-c2ncccn2)nc1OCCO [bosentan]
- exercise capacity, functional class, health-related quality of life and haemodynamic parameters (including PVR and PAP) [6]: improve
- symptoms, aortic oxygen saturation, functional class, exercise capacity, Borg dyspnoea index, mean PAP, pulmonary blood flow and PVR [7]: improved

Structure (SMILES): CCCCC[C@H](O)/C=C/[C@@H]1[C@H]2C/C(=C/CCCC(=O)O)O[C@H]2C[C@H]1O [epoprostenol]
- rebound effect after inhaled nitric oxide (NO) cessation [8]: prevent the rebound effect
